Columns and labels:
IKKe = IKKe (Homo sapiens (Human), UniProt Q14164); assay: IKKe Biochemical Assay
Summary of the method: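 Human IKKε activity was measured with compounds in a 10-point 1:4 dilution series, top concentration 30 uM final, in 1% DMSO final; 10 uM staurosporine served as the control. Enzyme and substrate were incubated 90 min at 25° C, then stopped, and substrate/product peaks were separated by microfluidic mobility-shift on a LabChip EZ Reader II.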

TBK1 = TBK1 (Homo sapiens (Human), UniProt Q9UHD2); assay: TBK Biochemical Assay
Summary of the method: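 Enzyme and substrate with compound (10-point 1:4 series, top 30 uM final, 1% DMSO) incubated 90 min at 25 °C, then stopped; substrate/product separated and read by LabChip mobility-shift, staurosporine 10 uM final as full-inhibition control.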

Chain of TBK1 (Q9UHD2 whole entry, species assumed): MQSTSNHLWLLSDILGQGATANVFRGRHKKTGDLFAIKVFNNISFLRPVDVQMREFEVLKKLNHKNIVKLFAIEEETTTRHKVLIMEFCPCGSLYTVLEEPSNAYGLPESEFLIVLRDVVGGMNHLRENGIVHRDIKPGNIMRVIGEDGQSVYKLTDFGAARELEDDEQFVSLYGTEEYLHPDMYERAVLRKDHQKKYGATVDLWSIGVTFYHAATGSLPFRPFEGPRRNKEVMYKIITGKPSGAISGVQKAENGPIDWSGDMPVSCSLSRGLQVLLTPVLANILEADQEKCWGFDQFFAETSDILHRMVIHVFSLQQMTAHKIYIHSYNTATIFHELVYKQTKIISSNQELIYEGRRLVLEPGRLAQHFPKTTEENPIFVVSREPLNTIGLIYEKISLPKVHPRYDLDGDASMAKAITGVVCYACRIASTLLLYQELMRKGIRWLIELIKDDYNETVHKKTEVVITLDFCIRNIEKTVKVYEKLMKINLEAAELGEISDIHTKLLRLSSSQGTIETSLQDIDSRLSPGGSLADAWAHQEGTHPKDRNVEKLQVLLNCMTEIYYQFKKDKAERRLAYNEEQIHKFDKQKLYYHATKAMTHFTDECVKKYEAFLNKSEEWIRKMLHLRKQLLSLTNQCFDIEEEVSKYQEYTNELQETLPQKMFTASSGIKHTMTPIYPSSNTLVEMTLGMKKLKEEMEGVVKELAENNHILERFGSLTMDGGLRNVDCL
Chain of IKKe (Q14164 whole entry, species assumed): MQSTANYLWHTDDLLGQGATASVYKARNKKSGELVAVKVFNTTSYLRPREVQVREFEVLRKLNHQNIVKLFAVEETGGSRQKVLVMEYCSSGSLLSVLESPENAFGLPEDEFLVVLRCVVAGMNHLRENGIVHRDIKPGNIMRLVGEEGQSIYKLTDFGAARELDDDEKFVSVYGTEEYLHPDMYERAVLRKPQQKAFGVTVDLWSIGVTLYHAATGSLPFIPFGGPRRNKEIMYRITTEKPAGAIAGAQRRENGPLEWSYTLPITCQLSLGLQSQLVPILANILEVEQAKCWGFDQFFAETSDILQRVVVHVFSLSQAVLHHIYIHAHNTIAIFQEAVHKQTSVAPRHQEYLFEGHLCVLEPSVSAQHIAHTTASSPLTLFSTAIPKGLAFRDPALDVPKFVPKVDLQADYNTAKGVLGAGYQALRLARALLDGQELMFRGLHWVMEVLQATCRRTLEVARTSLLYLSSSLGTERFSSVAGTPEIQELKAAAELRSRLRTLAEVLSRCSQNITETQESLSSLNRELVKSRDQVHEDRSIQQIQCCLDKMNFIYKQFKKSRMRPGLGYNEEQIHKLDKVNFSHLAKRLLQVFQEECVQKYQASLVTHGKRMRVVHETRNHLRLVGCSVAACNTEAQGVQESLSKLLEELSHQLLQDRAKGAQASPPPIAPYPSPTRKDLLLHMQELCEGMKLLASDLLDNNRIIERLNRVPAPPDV

Compound: COc1nc(Nc2cc(-c3ccc(O[C@H]4CCN(C(=O)c5cnn[nH]5)C[C@H]4F)c(C#N)c3)ncn2)ccc1N1CCN(C2COC2)CC1 [Example 79, 2-[[(3R,4S)-3-fluoro-1-[(1H-1,2,3-triazol-5-yl)carbonyl]piperidin-4-yl]oxy]-5-[6-([6-methoxy-5-[4-(oxetan-3-yl)piperazin-1-yl]pyridin-2-yl]amino)pyrimidin-4-yl]benzonitrile]
- IC50 (IKKe): < 100 nM
- IC50 (TBK1): < 100 nM

Compound: COc1nc(Nc2cc(-c3ccc(OC4CCNCC4(F)F)c(C#N)c3)ncn2)ccc1N1CCN(C)[C@@H](C)C1 (stereo partly drawn) [Example 80, 2-[(3,3-difluoropiperidin-4-yl)oxy]-5-[6-({5-[(3S)-3,4-dimethylpiperazin-1-yl]-6-methoxypyridin-2-yl}amino)pyrimidin-4-yl]benzonitrile]
- IC50 (IKKe): < 100 nM
- IC50 (TBK1): < 100 nM

Compound: COc1nc(Nc2cc(-c3ccc(OC4CCN(C(=O)[C@@H](C)O)CC4(F)F)c(C#N)c3)ncn2)ccc1N1CCN(C)[C@@H](C)C1 (stereo partly drawn) [Example 81, 2-([3,3-difluoro-1-[(2R)-2-hydroxypropanoyl]piperidin-4-yl]oxy)-5-[6-([5-[(3S)-3,4-dimethylpiperazin-1-yl]-6-methoxypyridin-2-yl]amino)pyrimidin-4-yl]benzonitrile]
- IC50 (IKKe): < 100 nM
- IC50 (TBK1): < 100 nM

Compound: COc1nc(Nc2cc(-c3ccc(OC4CCN(C(=O)[C@H](C)O)CC4(F)F)c(C#N)c3)ncn2)ccc1N1CCN(C)[C@@H](C)C1 (stereo partly drawn) [Example 82, 2-([3,3-difluoro-1-[(2S)-2-hydroxypropanoyl]piperidin-4-yl]oxy)-5-[6-([5-[(3S)-3,4-dimethylpiperazin-1-yl]-6-methoxypyridin-2-yl]amino)pyrimidin-4-yl]benzonitrile]
- IC50 (IKKe): < 100 nM
- IC50 (TBK1): < 100 nM

Compound: COc1nc(Nc2cc(-c3ccc(OC4CCNCC4(F)F)c(C#N)c3)ncn2)ccc1C1CCN(C2COC2)CC1 (stereo not shown) [Example 83]
- IC50 (IKKe): < 100 nM
- IC50 (TBK1): < 100 nM

Compound: COc1nc(Nc2cc(-c3ccc(OC4CCN(C(=O)[C@H](C)O)CC4(F)F)c(C#N)c3)ncn2)ccc1C1CCN(C2COC2)CC1 (stereo partly drawn) [Example 84, 2-([3,3-difluoro-1-[(2S)-2-hydroxypropanoyl]piperidin-4-yl]oxy)-5-[6-([6-methoxy-5-[1-(oxetan-3-yl)piperidin-4-yl]pyridin-2-yl]amino)pyrimidin-4-yl]benzonitrile]
- IC50 (IKKe): < 100 nM
- IC50 (TBK1): < 100 nM

Compound: C[C@H](O)C(=O)N1CCC(Oc2ccc(-c3cc(Nc4ccc(N5CCN(C6COC6)CC5)cc4)ncn3)cc2C#N)C(F)(F)C1 (stereo partly drawn) [Example 85, 2-([3,3-difluoro-1-[(2S)-2-hydroxypropanoyl]piperidin-4-yl]oxy)-5-[6-([4-[4-(oxetan-3-yl)piperazin-1-yl]phenyl]amino)pyrimidin-4-yl]benzonitrile]
- IC50 (IKKe): < 100 nM
- IC50 (TBK1): < 100 nM

Compound: C[C@@H](O)C(=O)N1CCC(Oc2ccc(-c3cc(Nc4ccc(N5CCN(C6COC6)CC5)cc4)ncn3)cc2C#N)C(F)(F)C1 (stereo partly drawn) [Example 86, 2-([3,3-difluoro-1-[(2R)-2-hydroxypropanoyl]piperidin-4-yl]oxy)-5-[6-([4-[4-(oxetan-3-yl)piperazin-1-yl]phenyl]amino)pyrimidin-4-yl]benzonitrile]
- IC50 (IKKe): 100 to 1000 nM
- IC50 (TBK1): < 100 nM

Compound: COc1nc(Nc2cc(-c3ccc(NC4CCOCC4)c(C#N)c3)ncn2)ccc1C(=O)N(C)C [Example 87, 6-[(6-[3-cyano-4-[(oxan-4-yl)amino]phenyl]pyrimidin-4-yl)amino]-2-methoxy-N,N-dimethylpyridine-3-carboxamide]
- IC50 (IKKe): 100 to 1000 nM
- IC50 (TBK1): < 100 nM

Compound: COc1nc(Nc2cc(-c3ccc(OC4CCOCC4)c(C#N)c3)ncn2)ccc1C(=O)NCCO [Example 88, 6-([6-[3-cyano-4-(oxan-4-yloxy)phenyl]pyrimidin-4-yl]amino)-N-(2-hydroxyethyl)-2-methoxypyridine-3-carboxamide]
- IC50 (IKKe): < 100 nM
- IC50 (TBK1): < 100 nM

Compound: COc1nc(Nc2cc(-c3ccc(OC4CCOCC4)c(C#N)c3)ncn2)ccc1C(=O)NC1CN2CCC1CC2 (stereo not shown) [Example 89, 6-((6-(3-cyano-4-((tetrahydro-2H-pyran-4-yl)oxy)phenyl)pyrimidin-4-yl)amino)-2-methoxy-N-(quinuclidin-3-yl)nicotinamide]
- IC50 (IKKe): < 100 nM
- IC50 (TBK1): < 100 nM

Compound: COc1nc(Nc2cc(-c3ccc(OC4CCOCC4)c(C#N)c3)ncn2)ccc1C(=O)N1C2CCCC1COC2 [Example 90, 5-(6-[[6-methoxy-5-([3-oxa-9-azabicyclo[3.3.1]nonan-9-yl]carbonyl)pyridin-2-yl]amino]pyrimidin-4-yl)-2-(oxan-4-yloxy)benzonitrile]
- IC50 (IKKe): < 100 nM
- IC50 (TBK1): < 100 nM

Compound: COc1nc(Nc2cc(-c3ccc(O[C@H]4CCN(C(=O)[C@H](C)O)CC4(F)F)c(C#N)c3)ncn2)ccc1N1CCN(C2COC2)CC1 [Example 91, 2-[[(4S)-3,3-difluoro-1-[(2S)-2-hydroxypropanoyl]piperidin-4-yl]oxy]-5-[6-([6-methoxy-5-[4-(oxetan-3-yl)piperazin-1-yl]pyridin-2-yl]amino)pyrimidin-4-yl]benzonitrile]
- IC50 (IKKe): < 100 nM
- IC50 (TBK1): < 100 nM

Compound: COc1nc(Nc2cc(-c3ccc(O[C@@H]4CCN(C(=O)[C@H](C)O)CC4(F)F)c(C#N)c3)ncn2)ccc1N1CCN(C2COC2)CC1 [Example 92, 2-[[(4R)-3,3-difluoro-1-[(2S)-2-hydroxypropanoyl]piperidin-4-yl]oxy]-5-[6-([6-methoxy-5-[4-(oxetan-3-yl)piperazin-1-yl]pyridin-2-yl]amino)pyrimidin-4-yl]benzonitrile]
- IC50 (IKKe): < 100 nM
- IC50 (TBK1): < 100 nM

Compound: COc1nc(Nc2cc(-c3ccc(O[C@H]4CCN(C(=O)[C@H](C)O)CC4(F)F)c(C#N)c3)ncn2)ccc1C1CCN(C2COC2)CC1 [Example 93, 2-[[(4S)-3,3-difluoro-1-[(2S)-2-hydroxypropanoyl]piperidin-4-yl]oxy]-5-[6-([6-methoxy-5-[1-(oxetan-3-yl)piperidin-4-yl]pyridin-2-yl]amino)pyrimidin-4-yl]benzonitrile]
- IC50 (IKKe): < 100 nM
- IC50 (TBK1): < 100 nM

Compound: COc1nc(Nc2cc(-c3ccc(O[C@@H]4CCN(C(=O)[C@H](C)O)CC4(F)F)c(C#N)c3)ncn2)ccc1C1CCN(C2COC2)CC1 [Example 94, 2-[[(4R)-3,3-difluoro-1-[(2S)-2-hydroxypropanoyl]piperidin-4-yl]oxy]-5-[6-([6-methoxy-5-[1-(oxetan-3-yl)piperidin-4-yl]pyridin-2-yl]amino)pyrimidin-4-yl]benzonitrile]
- IC50 (IKKe): < 100 nM
- IC50 (TBK1): < 100 nM

Compound: COc1nc(Nc2cc(-c3ccc(O[C@H]4CCN(C(=O)[C@@H](C)O)CC4(F)F)c(C#N)c3)ncn2)ccc1N1CCN(C2COC2)CC1 [Example 95, 2-[[(4S)-3,3-difluoro-1-[(2R)-2-hydroxypropanoyl]piperidin-4-yl]oxy]-5-[6-([6-methoxy-5-[4-(oxetan-3-yl)piperazin-1-yl]pyridin-2-yl]amino)pyrimidin-4-yl]benzonitrile]
- IC50 (IKKe): < 100 nM
- IC50 (TBK1): < 100 nM

Compound: COc1nc(Nc2cc(-c3ccc(OC4CCN(C(=O)[C@@H](C)O)CC4(F)F)c(C#N)c3)ncn2)ccc1C1CCN(C2COC2)CC1 (stereo partly drawn) [Example 97, 2-([3,3-difluoro-1-[(2R)-2-hydroxypropanoyl]piperidin-4-yl]oxy)-5-[6-([6-methoxy-5-[1-(oxetan-3-yl)piperidin-4-yl]pyridin-2-yl]amino)pyrimidin-4-yl]benzonitrile]
- IC50 (IKKe): < 100 nM
- IC50 (TBK1): < 100 nM

Compound: COc1nc(Nc2cc(-c3ccc(O[C@@H]4CCN(C(=O)[C@@H](C)O)CC4(F)F)c(C#N)c3)ncn2)ccc1N1CCN(C2COC2)C[C@@H]1C [Example 98, 2-((R)-3,3-difluoro-1-((R)-2-hydroxypropanoyl)piperidin-4-yloxy)-5-(6-(6-methoxy-5-((S)-2-methyl-4-(oxetan-3-yl)piperazin-1-yl)pyridin-2-ylamino)pyrimidin-4-yl)benzonitrile]
- IC50 (IKKe): < 100 nM
- IC50 (TBK1): < 100 nM

Compound: COc1nc(Nc2cc(-c3ccc(O[C@H]4CCN(C(=O)[C@@H](C)O)CC4(F)F)c(C#N)c3)ncn2)ccc1N1CCN(C2COC2)C[C@@H]1C [Example 99, 2-((S)-3,3-difluoro-1-((R)-2-hydroxypropanoyl)piperidin-4-yloxy)-5-(6-(6-methoxy-5-((S)-2-methyl-4-(oxetan-3-yl)piperazin-1-yl)pyridin-2-ylamino)pyrimidin-4-yl)benzonitrile]
- IC50 (IKKe): < 100 nM
- IC50 (TBK1): < 100 nM

Compound: COc1nc(Nc2cc(-c3ccc(OC4CCOCC4)c(C#N)c3)ncn2)ccc1N1CCN(C2COC2)CC1 [Example 100, 5-[6-({6-methoxy-5-[4-(oxetan-3-yl)piperazin-1-yl]pyridin-2-yl}amino)pyrimidin-4-yl]-2-(oxan-4-yloxy)benzonitrile]
- IC50 (IKKe): < 100 nM
- IC50 (TBK1): < 100 nM

Compound: COc1nc(Nc2cc(-c3ccc(O[C@H]4CCN(C(=O)[C@H](C)O)CC4(F)F)c(C#N)c3)ncn2)ccc1N1CCN(C2COC2)C[C@@H]1C [Example 101, 2-[[(4S)-3,3-difluoro-1-[(2S)-2-hydroxypropanoyl]piperidin-4-yl]oxy]-5-[6-([6-methoxy-5-[(2S)-2-methyl-4-(oxetan-3-yl)piperazin-1-yl]pyridin-2-yl]amino)pyrimidin-4-yl]benzonitrile]
- IC50 (IKKe): < 100 nM
- IC50 (TBK1): < 100 nM

Compound: COc1nc(Nc2cc(-c3ccc(O[C@@H]4CCN(C(=O)[C@H](C)O)CC4(F)F)c(C#N)c3)ncn2)ccc1N1CCN(C2COC2)C[C@@H]1C [Example 102, 2-[[(4R)-3,3-difluoro-1-[(2S)-2-hydroxypropanoyl]piperidin-4-yl]oxy]-5-[6-([6-methoxy-5-[(2S)-2-methyl-4-(oxetan-3-yl)piperazin-1-yl]pyridin-2-yl]amino)pyrimidin-4-yl]benzonitrile]
- IC50 (IKKe): < 100 nM
- IC50 (TBK1): < 100 nM

Reference: patent US11440899B2, “Pyrimidine TBK/IKKe inhibitor compounds and uses thereof” (Merck Patent GmbH, priority 2017, dated 2022)
